From patent US20260285846A1, “REV-ERB AGONISTS FOR TH17-MEDIATED INFLAMMATORY DISORDERS” (UNIVERSITY OF FLORID RESEARCH FOUNDATION, iNCORPORATED, priority 2021, published 2026)

The compounds below were run against REV-ERBα LBD (Homo sapiens, UniProt P20393, DEL324-422) (assay: biochemical). Details: FRET assay; 6xHistag-REV-ERBα LBD with FITC-labeled SMRT corepressor peptide; read-out: REVERBα (Agonism of REV-ERBα, EC50).
Method: TR-FRET corepressor interaction assay. The time-resolved fluorescence resonance energy transfer (TR-FRET) assay was performed in black low-volume 384-well plates (Greiner). Each well contained 4 nM 6×Histag-REV-ERBα LBD (human; residues 281-614 A324-422) or 6×Histag-REV-ERBα LBD (human; residues 381-579) protein expressed in and purified from Escherichia coli using nickel affinity and size exclusion chromatography; 1 nM LanthaScreen Elite Tb-anti-HIS Antibody (Thermo Fisher Scientific); and 400 nM FITC-labeled peptide derived from the SMRT corepressor ([…]) containing a N-terminal FITC label with a six-carbon linker (Ahx) and an amidated C-terminus for stability (synthesized by LifeTein) in TR-FRET buffer (20 mM potassium phosphate, pH 7.4, 50 mM potassium chloride, 1 mM dithiothreitol, and 0.005% Tween-20). Ligand stocks were prepared via serial dilution in DMSO, added to wells in triplicate, and plates were incubated at 4° C. for 2 h and read using a BioTek Synergy Neo multimode plate reader. The Tb donor was excited at 340 nm; its fluorescence emission was monitored at 495 nm, and the acceptor FITC emission was measured at 520 nm; and the TR-FRET ratio was calculated as the signal at 520 nm divided by the signal at 495 nm. Data were plotted using GraphPad Prism as TR-FRET ratio vs. ligand concentration and fit to sigmoidal dose response curve equation.
Exemplary compounds of the present disclosure were assayed as described above to assess agonism of REV-ERBα. Results of the FRET assay are shown in Table 2 below (A: EC50<100 nM; B: EC50 100 nM-1000 nM; C: EC50>1000 nM; NT: not tested).

Chain of REV-ERBα LBD (P20393 with tags, fused parts or gaps DEL324-422): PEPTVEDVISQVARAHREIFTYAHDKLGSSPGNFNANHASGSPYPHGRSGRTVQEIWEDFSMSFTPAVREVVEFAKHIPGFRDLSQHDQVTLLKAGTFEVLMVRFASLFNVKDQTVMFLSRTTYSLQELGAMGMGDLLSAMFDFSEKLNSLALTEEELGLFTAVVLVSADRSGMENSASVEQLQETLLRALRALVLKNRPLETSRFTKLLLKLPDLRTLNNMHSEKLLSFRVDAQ
Chain of REV-ERBα LBD (Q9Y618 2335-2356 partner limits assumed): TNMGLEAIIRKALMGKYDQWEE

First: O=S(=O)(N[C@@H](c1cn(C2CCC2)c2cc(-c3ncc(F)cc3C(F)(F)F)c(F)cc12)C(F)F)C1CC1 [Compound 156, (S)—N-(1-(1-cyclobutyl-5-fluoro-6-(5-fluoro-3-(trifluoromethyl)pyridin-2-yl)-1H-indol-3-yl)-2,2-difluoroethyl)cyclopropanesulfonamide]
Second: CN1CC(n2cc([C@H](NS(=O)(=O)C3CC3)C(F)F)c3cc(F)c(-c4ccc(F)cc4C(F)(F)F)cc32)C1 [Compound 168, (S)—N-(2,2-difluoro-1-(5-fluoro-6-(4-fluoro-2-(trifluoromethyl)phenyl)-1-(1-methylazetidin-3-yl)-1H-indol-3-yl)ethyl)cyclopropanesulfonamide]
The EC50 of the first is lower: < 100 nM for the first, 100 to 1000 nM for the second.

`CC(C)(C)Cn1cc([C@H](NS(=O)(=O)C2CC2)C(F)F)c2ccc(-c3ccc(F)cc3C(F)(F)F)nc21` [Compound 4, (S)—N-(2,2-difluoro-1-(6-(4-fluoro-2-(trifluoromethyl)phenyl)-1-neopentyl-1H-pyrrolo[2,3-b]pyridin-3-yl)ethyl)cyclopropanesulfonamide] and `CC(C)(C)Cn1cc([C@H](NS(=O)(=O)C2CC2)C(F)F)c2cc(F)c(-c3ccc(F)cc3C(F)(F)F)cc21` [Compound 164, (S)—N-(2,2-difluoro-1-(5-fluoro-6-(4-fluoro-2-(trifluoromethyl)phenyl)-1-neopentyl-1H-indol-3-yl)ethyl)cyclopropanesulfonamide] cannot be ordered by EC50: < 100 nM for the first, < 100 nM for the second.

`CC(C)(C)Cn1cc([C@H](NS(=O)(=O)C2CC2)C(F)F)c2ccc(-c3cncnc3C(F)(F)F)cc21` [Compound 80, (S)—N-(2,2-difluoro-1-(1-neopentyl-6-(4-(trifluoromethyl)pyrimidin-5-yl)-1H-indol-3-yl)ethyl)cyclopropanesulfonamide] and `CC(C)(C)Cn1cc([C@H](NS(=O)(=O)C2CC2)C(F)F)c2ccc(-c3ccncc3C(F)(F)F)cc21` [Compound 102, (S)—N-(2,2-difluoro-1-(1-neopentyl-6-(3-(trifluoromethyl)pyridin-4-yl)-1H-indol-3-yl)ethyl)cyclopropanesulfonamide] cannot be ordered by EC50: < 100 nM for the first, < 100 nM for the second.

`CC(C)(C)Cn1cc([C@H](NS(=O)(=O)C2CC2)C(F)F)c2ccc(-c3cccnc3C#N)cc21` [Compound 49, (S)—N-(1-(6-(2-cyanopyridin-3-yl)-1-neopentyl-1H-indol-3-yl)-2,2-difluoroethyl)cyclopropanesulfonamide] and `CC(C)(C)Cn1cc([C@H](NS(=O)(=O)C2CCC2)C(F)F)c2ccc(-c3cccnc3C(F)(F)F)cc21` [Compound 14, (S)—N-(2,2-difluoro-1-(1-neopentyl-6-(2-(trifluoromethyl)pyridin-3-yl)-1H-indol-3-yl)ethyl)cyclobutanesulfonamide] cannot be ordered by EC50: < 100 nM for the first, < 100 nM for the second.

`CC(C)(C)Cn1cc([C@H](NS(=O)(=O)C2CC2)C(F)F)c2cc(F)c(-c3c(C#N)cccc3C(F)(F)F)cc21` [Compound 108, N-((1S)-1-(6-(2-cyano-6-(trifluoromethyl)phenyl)-5-fluoro-1-neopentyl-1H-indol-3-yl)-2,2-difluoroethyl)cyclopropanesulfonamide] and `CC(C)(C)Cn1cc([C@H](NS(=O)(=O)C2CCC2)C(F)F)c2cc(F)c(-c3c(C#N)cccc3C(F)(F)F)cc21` [Compound 136, N-((1S)-1-(6-(2-cyano-6-(trifluoromethyl)phenyl)-5-fluoro-1-neopentyl-1H-indol-3-yl)-2,2-difluoroethyl)cyclobutanesulfonamide] cannot be ordered by EC50: < 100 nM for the first, < 100 nM for the second.

`[2H]C1([2H])CC(S(=O)(=O)N[C@@H](c2cn(CC(C)(C)C)c3cc(-c4ccccc4C(F)(F)F)ccc23)C(F)F)C1` [Compound 163, (S)—N-(2,2-difluoro-1-(1-neopentyl-6-(2-(trifluoromethyl)phenyl)-1H-indol-3-yl)ethyl)cyclobutane-1-sulfonamide-3,3-d2] and `CC(C)(C)Cn1cc([C@H](NS(=O)(=O)C2CC2)C(F)F)c2ccc(-c3c[n+]([O-])ccc3C(F)(F)F)cc21` [Compound 107, (S)-3-(3-(1-(cyclopropanesulfonamido)-2,2-difluoroethyl)-1-neopentyl-1H-indol-6-yl)-4-(trifluoromethyl)pyridine 1-oxide] cannot be ordered by EC50: < 100 nM for the first, < 100 nM for the second.

`Cc1cnc(C(F)(F)F)c(-c2nc3c(cc2F)c([C@H](NS(=O)(=O)C2CC2)C(F)F)cn3CC(C)(C)C)c1` [Compound 142, (S)—N-(2,2-difluoro-1-(5-fluoro-6-(5-methyl-2-(trifluoromethyl)pyridin-3-yl)-1-neopentyl-1H-pyrrolo[2,3-b]pyridin-3-yl)ethyl)cyclopropanesulfonamide] and `CC(C)(C)Cn1cc([C@H](NS(=O)(=O)C2CC2)C(F)F)c2cc(F)c(-c3cc(Cl)cnc3C(F)(F)F)cc21` [Compound 143, (S)—N-(1-(6-(5-chloro-2-(trifluoromethyl)pyridin-3-yl)-5-fluoro-1-neopentyl-1H-indol-3-yl)-2,2-difluoroethyl)cyclopropanesulfonamide] cannot be ordered by EC50: < 100 nM for the first, < 100 nM for the second.

`N#Cc1nccc(C(F)(F)F)c1-c1nc2c(cc1F)c([C@H](NS(=O)(=O)C1CC1)C(F)F)cn2C1CCC1` [Compound 160, N-((1S)-1-(6-(2-cyano-4-(trifluoromethyl)pyridin-3-yl)-1-cyclobutyl-5-fluoro-1H-pyrrolo[2,3-b]pyridin-3-yl)-2,2-difluoroethyl)cyclopropanesulfonamide] and `N#Cc1nccc(C(F)F)c1-c1cc2c(cc1F)c([C@H](NS(=O)(=O)C1CC1)C(F)F)cn2C1CCC1` [Compound 161, N-((1S)-1-(6-(2-cyano-4-(difluoromethyl)pyridin-3-yl)-1-cyclobutyl-5-fluoro-1H-indol-3-yl)-2,2-difluoroethyl)cyclopropanesulfonamide] cannot be ordered by EC50: < 100 nM for the first, < 100 nM for the second.

`CC(NS(=O)(=O)C1CC1)c1cn(CC(C)(C)C)c2cc(-c3ncc(F)cc3Cl)c(F)cc12` (centres unmarked) [Compound 62, N-(1-(6-(3-chloro-5-fluoropyridin-2-yl)-5-fluoro-1-neopentyl-1H-indol-3-yl)ethyl)cyclopropanesulfonamide] and `Cc1ncc(F)cc1-c1cc2c(cc1F)c(C(C)NS(=O)(=O)C1CC1)cn2CC(C)(C)C` (centres unmarked) [Compound 66, N-(1-(5-fluoro-6-(5-fluoro-2-methylpyridin-3-yl)-1-neopentyl-1H-indol-3-yl)ethyl)cyclopropanesulfonamide] cannot be ordered by EC50: < 100 nM for the first, < 100 nM for the second.

`CC(NS(=O)(=O)C1CC1)c1cn(CC(C)(C)C)c2cc(-c3ncccc3Cl)c(F)cc12` (centres unmarked) [Compound 58, N-[1-[6-(3-chloro-2-pyridyl)-1-(2,2-dimethylpropyl)-5-fluoro-indol-3-yl]ethyl]cyclopropanesulfonamide] and `CC(NS(=O)(=O)C1CC1)c1cn(CC(C)(C)C)c2cc(-c3ncccc3OC(F)F)c(F)cc12` (centres unmarked) [Compound 61, N-(1-(6-(3-(difluoromethoxy)pyridin-2-yl)-5-fluoro-1-neopentyl-1H-indol-3-yl)ethyl)cyclopropanesulfonamide] cannot be ordered by EC50: < 100 nM for the first, < 100 nM for the second.

First: CC(C)(C)Cn1cc([C@H](NS(=O)(=O)C2CC2)C(F)F)c2ccc(-c3c(C#N)cccc3C(F)F)cc21 [Compound 103, (S)—N-(1-(6-(2-cyano-6-(difluoromethyl)phenyl)-1-neopentyl-1H-indol-3-yl)-2,2-difluoroethyl)cyclopropanesulfonamide]
Second: CC(C)(C)Cn1cc([C@H](NS(=O)(=O)C2CC2)C(F)(F)F)c2cc(F)c(-c3ncccc3C#N)cc21 [Compound 10, (S)—N-(1-(6-(3-cyanopyridin-2-yl)-5-fluoro-1-neopentyl-1H-indol-3-yl)-2,2,2-trifluoroethyl)cyclopropanesulfonamide]
The EC50 of the first is lower: < 100 nM for the first, 100 to 1000 nM for the second. The first is the more potent here.

`CC(NS(=O)(=O)C1CC1)c1cn(CC(C)(C)C)c2cc(C3CCOC3)c(F)cc12` (centres unmarked) [Compound 34, N-(1-(5-fluoro-1-neopentyl-6-(tetrahydrofuran-3-yl)-1H-indol-3-yl)ethyl)cyclopropanesulfonamide] and `CC(C)(C)Cn1cc([C@H](NS(=O)(=O)C2CC2)C(F)F)c2cc(F)c(C3CCOCC3)cc21` [Compound 172, (S)—N-(2,2-difluoro-1-(5-fluoro-1-neopentyl-6-(tetrahydro-2H-pyran-4-yl)-1H-indol-3-yl)ethyl)cyclopropanesulfonamide] cannot be ordered by EC50: < 100 nM for the first, < 100 nM for the second.

First: O=S(=O)(N[C@@H](c1cn(C2COC2)c2nc(-c3ccc(F)cc3C(F)(F)F)c(F)cc12)C(F)F)C1CC1 [Compound 177, (S)—N-(2,2-difluoro-1-(5-fluoro-6-(4-fluoro-2-(trifluoromethyl)phenyl)-1-(oxetan-3-yl)-1H-pyrrolo[2,3-b]pyridin-3-yl)ethyl)cyclopropanesulfonamide]
Second: CC(C)(C)Cn1cc([C@H](NS(=O)(=O)C2CC2)C(F)F)c2cc(F)c(-c3ccc(=O)[nH]c3C(F)(F)F)cc21 [Compound 169, (S)—N-(2,2-difluoro-1-(5-fluoro-1-neopentyl-6-(6-oxo-2-(trifluoromethyl)-1,6-dihydropyridin-3-yl)-1H-indol-3-yl)ethyl)cyclopropanesulfonamide]
The EC50 of the first is higher: 100 to 1000 nM for the first, < 100 nM for the second.
